Laboratory results from patent US12257251B2, “Use of FAK inhibitor in preparation of drug for treating tumors having NRAS mutation” (INXMED (NANJING) CO., LTD., priority 2019, dated 2025).

System: human esophageal cancer cell line KYSE-270
Experiment: Subcutaneous xenograft of human esophageal cancer cell line KYSE-270 in NMRI nude mice: tumor growth
Type: in vivo, mouse
Settings: for Tumor shrinkage [x/y]: BI853520 50 mg/Kg qd
Procedure: 1.1. Model: Subcutaneous xenograft of human esophageal cancer cell line KYSE-270 in NMRI nude mice.
1.3. Cells: KYSE-270 is an esophageal cancer cell line (Public Health England, catalog number: 94072021). Cells were cultured in T175 tissue culture flasks containing 5% CO2 at 37° C. The medium was RPMI 1640+HAM F12 (1:1) supplemented with 2% FCS and 2 mM Glutamax. Passage was performed three times a week at a ratio of 1:2.
1.4. Mice: Mice were 8 to 10 week old female mice (BomTac: NMRI-Foxn1^nu) purchased from Taconic®, Denmark. Upon arrival in the animal room, the mice were allowed to acclimate for at least 5 days before being used for assay. The animals were housed under standard conditions (temperature: 21.5±1.5° C., humidity: 55+10%), 7 to 10 mice for each group. A standard diet and autoclaved tap water were provided for ad libitum feeding. A subcutaneous microchip implanted under isoflurane anesthesia was used to identify each mouse.
1.5. Random establishment of tumors: To establish subcutaneous tumors, KYSE-270 cells were harvested by centrifugation, washed and resuspended in PBS+5% FCS at a concentration of 5×10^7 cells/ml. Then 100 l of cell suspension containing 5×10^6 cells was injected subcutaneously into the right flank of mice (1 site per mouse). When tumors were well established and reached a volume of 94 to 252 mm^3, mice were randomly assigned to the treatment group and the control group (13 days after cell injection).
1.6. Administration: BI 853520 was suspended in 0.5% hydroxyethyl cellulose, which was administered intragastrically through gavage needle every day, and the dosage was 10 mL/Kg body weight. Paclitaxel was dissolved in saline (0.9% NaCl), which was administered intravenously in a volume of 10 ml/kg body weight. The suspension of BI853520 could be used for up to 7 days. Paclitaxel solution was stored at 6° C. and used for up to 14 days.
1.7. Monitoring tumor growth and side effects: Tumor diameters were measured with calipers three times a week. The volume [mm^3] of each tumor was calculated according to the equation “tumor volume=length×diameter^2×π/6”. To monitor the side effects of the treatment, the mice were checked daily for abnormalities and their body weights were measured three times a week. For ethical reasons, animals with tumors larger than 1.5 cm in diameter, ulcerated tumors, or 20% body weight loss were euthanized.
Statistical assessment of tumor volume and body weight on day 13 was performed. Animal number 1 (control group) was excluded from the statistical evaluation because of weight loss and had to be euthanized early (day 9). Measured tumor volume was used as the target variable in the statistical analysis. The number of animals and the median, minimum and maximum tumor volumes in each group were calculated. For a quick overview of possible treatment effects, the median tumor volume for each treatment group T and the median tumor volume for the control group C were used to calculate TGI: TGI=100×[(Cd−C1)−(Td−T1)]/(Cd−C1) • wherein, C1, T1=median tumor volume in control and treatment groups at the start of the assay (day 1). • Cd, Td=median tumor volume in control and treatment groups at the end of the assay (day 13).
The wilcoxon test was used for comparison. For body weight, the percent change relative to initial body weight on day 1 was used as the target variable for statistical analysis. The number of animals, and the median, minimum and maximum weight changes in each group were calculated.
One-sided test to compare all treatment groups with control group was performed for observing: • reduction in tumor volume (inhibition of tumor growth, efficacy parameter) and • reduction in weight changes (weight loss, tolerance parameters).
Within each subtopic, p-values for the efficacy parameter were compared and adjusted for multiple times according to Bonferroni-Holm. The p-value for the tolerance parameter was kept constant so as not to overlook possible side effects. […]

In the case of `COc1cc(C(=O)NC2CCN(C)CC2)c(F)cc1Nc1ncc(C(F)(F)F)c(Oc2cccc3c2C(=O)N(C)C3)n1` [BI853520], the TGI (BI853520 50 mg/Kg qd p.o., day 13) is reported as 106%, the “Tumor shrinkage [x/y]” value (day 13, 50 mg/kg) is reported as 6/7 and the “Tumor shrinkage [x/y]” value (day 13, listed as BI 853520, 50 mg/kg) is reported as 6 of 7. For the same molecule, the “Inhibition of tumor growth (in words)” value (BI 853520 50 mg/kg) was “statistically significant inhibition of tumor growth” and the Median tumor volume (BI 853520 50 mg/kg per day, day 13 (start 175 mm^3)) was 126 mm^3.
